Results reported in ChEMBL document CHEMBL1141944, “A synthesis of 3-deoxydihydrolycoricidine: refinement of a structurally minimum pancratistatin pharmacophore” (Bioorg Med Chem Lett, 2005).
Active and inactive are the calls of the source. The calls are words filed in the database; no cut-off is given here.

How the values were obtained:
Assay type in all cases: functional, cell-based
[1] = system: MCF7; assay: Induction of apoptosis in human breast carcinoma MCF7 cell line
[2] = system: Jurkat; assay: Induction of apoptosis in human Jurkat […] cell line
[3] = system: MCF7; assay: Antitumor activity in human breast carcinoma MCF7 cell line at 1 to 10 uM
[4] = system: Jurkat; assay: Antitumor activity in human Jurkat […] cell line at 1 to 10 uM

Q: Which Activity [1] does the source give for `O=C1N[C@H]2[C@H](O)C[C@@H](O)C[C@@H]2c2cc3c(cc21)OCO3` here?
A: inactive

Q: And the Activity [2]?
A: inactive

Q: What about the Activity [3] of the same compound?
A: inactive

Q: What about the Activity [4] of the same compound?
A: inactive

Q: For `O=C1N[C@H]2[C@H](O)[C@H](O)[C@@H](O)[C@H](O)[C@@H]2c2cc3c(c(O)c21)OCO3`, which Activity [1] is on record?
A: Active

Q: What about the Activity [2] of the same compound?
A: Active
